This is an account of results in US11266655B2, “Methods and compositions for treating urea cycle disorders” (Camp4 Therapeutics Corporation, priority 2019, dated 2022).

One assay relates to SLC25A15. As to the kind of experiment: RNA-seq of compound-treated primary human hepatocytes, SLC25A15 expression. Format: cell-based. To be noted: for Fold change (Log 2) vs untreated, SLC25A15 expression: RNA-seq (Table 8).
The subject of another assay is NAGS. Format: cell-based, human.
In a further assay the test system is ASS1. In words: RNA-seq of compound-treated primary human hepatocytes, ASS1 expression. The assay is classed as cell-based. To be noted: 10 µM.
Another assay has as its system ARG1. In words: RNA-seq of compound-treated primary human hepatocytes, ARG1 expression. The assay is classed as cell-based. To be noted: primary human hepatocytes; for Fold change (Log 2) vs untreated, ARG1 expression: RNA-seq (Table 7).
The mark [1] stands for this setting: primary human hepatocytes, RNA-seq (Table 6).

Where a name gives a salt, the structure may show the parent alone. Read-outs that look alike come from different tables or passages of the source.

Turning to `O=C(NOCCO)c1cc(CN2OCCCC2=O)c(F)c(F)c1Nc1ccc(I)cc1F` [RO4987655)], the “Relative SLC25A15 level vs Untreated (±Standard Deviation)” value with SLC25A15 (10 μM, primary human hepatocytes, triplicate (Table 24, FIG. 16A-B)) came out at 1.31 ± 0.13.
As for `CN1CCN(CCCN2c3ccccc3Sc3ccc(C(F)(F)F)cc32)CC1` [TFP, Trifluoperazine], in the assay on NAGS (setting [1]), the “Fold change (Log 2) vs untreated, NAGS expression” value stood at 0.58 Log 2.
For `C=C1/C(=C\C=C2/CCC[C@]3(C)[C@@H]([C@H](C)CCCC(C)(C)O)CC[C@@H]23)C[C@@H](O)C[C@@H]1O` [Calcitriol], the “Fold change (Log 2) vs untreated, NAGS expression” value in the assay on NAGS (setting [1]) was 1.2 Log 2.
With `NC(=O)c1ccc(I)c([N+](=O)[O-])c1` [Iniparib (BSI-], the “Relative NAGS level vs Untreated (±Standard Deviation)” value in the assay on NAGS is listed as 1.35 ± 0.27.
Regarding `N#CC(c1ccnc(OCc2ccc(CN3CCOCC3)cc2)n1)c1nc2ccccc2s1` (stereo not shown) [AS602801], the “Relative SLC25A15 level vs Untreated (±Standard Deviation)” value in the assay with SLC25A15 (10 µM) stood at 2.22 ± 0.24.
For the molecule `CCc1ccc(CCOc2ccc(CC3SC(=O)NC3=O)cc2)nc1` (stereo not shown) [Pioglitazone HCl], the “Relative NAGS level vs Untreated (±Standard Deviation)” value with NAGS (0.3 μM, primary human hepatocytes, triplicate (Table 21, FIG. 13)) amounted to 1.33 ± 0.02.
Consider `COc1nc(N)nc2c1ncn2[C@@H]1O[C@H](COP(=O)(N[C@@H](C)C(=O)OCC(C)(C)C)Oc2cccc3ccccc23)[C@@H](O)[C@@]1(C)O` (stereo partly shown) [bms-986094 (inx-189)], for which, in the assay on SLC25A15 (primary human hepatocytes), the “Fold change (Log 2) vs untreated, SLC25A15 expression” value is reported as 1.18 Log 2.
For the molecule `CCCC(=O)O[C@@H]1[C@@H](C)[C@@]2(O)[C@@H](C=C(CO)C[C@]3(O)C(=O)C(C)=C[C@@H]23)[C@@H]2C(C)(C)[C@]12OC(=O)CCC` [Phorbol 12, 13-dibutyrate], the “Fold change (Log 2) vs untreated, NAGS expression” value with NAGS (setting [1]) is 0.62 Log 2.
For the molecule `Cc1cc(C)c(/C=C2\C(=O)Nc3ccccc32)[nH]1` [Semaxanib], the “Fold change (Log 2) vs untreated, NAGS expression” value in the assay on NAGS (setting [1]) worked out at 2 Log 2.
As to `Cc1ccc(F)c(NC(=O)Nc2ccc(-c3cccc4[nH]nc(N)c34)cc2)c1` [Linifanib], in the assay with NAGS (3 μM, primary human hepatocytes, triplicate (Table 21, FIG. 13)), the “Relative NAGS level vs Untreated (±Standard Deviation)” value is 1.32 ± 0.04.
Turning to `N#CC(c1ccnc(OCc2ccc(CN3CCOCC3)cc2)n1)c1nc2ccccc2s1` (stereo not shown) [Bentamapimod], the “Relative ASS1 level vs Untreated (±Standard Deviation)” value in the assay with ASS1 amounted to 1.90 ± 0.22.
With `O=C(N[C@H]1CN2CCC1CC2)c1cc2cccc(Cl)c2s1` [EVP-6124 (hydrochloride) (encenicline), encenicline], the “Fold change (Log 2) vs untreated, NAGS expression” value in the assay on NAGS (setting [1]) worked out at 0.75 Log 2.
In the case of TNF-a, the “Fold change (Log 2) vs untreated, ARG1 expression” value in the assay on ARG1 is on record as 1.87 Log 2.
`[H]/N=C(/N)N/C(=N/[H])NCCc1ccccc1` [Phenformin]: the “Fold change (Log 2) vs untreated, NAGS expression” value with NAGS amounted to 1.38 Log 2.
Consider `C[C@]12C[C@H](O)[C@H]3[C@@H](CCC4=CC(=O)CC[C@@]43C)[C@@H]1CC[C@@H]2C(=O)CO` [Corticosterone], for which, in the assay on SLC25A15 (primary human hepatocytes), the “Fold change (Log 2) vs untreated, SLC25A15 expression” value turned out to be 0.96 Log 2.
With `O=C(NCCCn1ccnc1)c1cc(-c2ccco2)on1` [SKL2001], in the assay with NAGS, the “Fold change (Log 2) vs untreated, NAGS expression” value is recorded as 0.95 Log 2.
Take `CC(=O)CC(c1ccccc1)c1c(O)c2ccccc2oc1=O` (stereo not shown) [wafarin]: the “Relative ARGI level vs Untreated (±Standard Deviation)” value in the assay with ARG1 (10 μM, triplicate (Table 17, FIG. 9)) is given as 1.33 ± 0.62.

B1: GDF 10 (BMP3b) (protein, UniProt P55107 369-478, looked up)
Growth/differentiation factor …: QWDEPRVCSRRYLKVDFADIGWNEWIISPKSFDAYYCAGACEFPMPKIVRPSNHATIQSIVRAVGIIPGIPEPCCVPDKMNSLGVLFLDENRNVVLKVYPNMSVDTCACR
As for B1, the “Fold change (Log 2) vs untreated, ARG1 expression” value in the assay on ARG1 was 0.97 Log 2.

B2: Wnt3 a (protein, UniProt P56704 19-352, looked up)
Protein Wnt-3a: SYPIWWSLAVGPQYSSLGSQPILCASIPGLVPKQLRFCRNYVEIMPSVAEGIKIGIQECQHQFRGRRWNCTTVHDSLAIFGPVLDKATRESAFVHAIASAGVAFAVTRSCAEGTAAICGCSSRHQGSPGKGWKWGGCSEDIEFGGMVSREFADARENRPDARSAMNRHNNEAGRQAIASHMHLKCKCHGLSGSCEVKTCWWSQPDFRAIGDFLKDKYDSASEMVVEKHRESRGWVETLRPRYTYFKVPTERDLVYYEASPNFCEPNPETGSFGTRDRTCNVSSHGIDGCDLLCCGRGHNARAERRREKCRCVFHWCCYVSCQECTRVYDVHTCK
For B2, the “Fold change (Log 2) vs untreated, SLC25A15 expression” value in the assay on SLC25A15 (primary human hepatocytes) was found to be 0.7 Log 2.
